The source of these data is patent US20260373036A1, “A PERSONAL CARE COMPOSITION” (Concpco, Inc., d/b/a UNILEVER, priority 2022, published 2026).

The data set concerns TXNRD1 (Thioredoxin reductase 1) gene. In words: TXNRD1 (thioredoxin reductase 1) gene expression in normal human epidermal keratinocytes (NHEK) by RT-PCR. The following applies: 24 hours, normalized to YWHAZ, relative to blank control (1.0). In kind it is cell-based. As to the method:
The normal human epidermal keratinocytes (NHEK, Lot: NHS-2021-006) (Archgene Biotechnology, Shanghai, China) were incubated in medium together with or without actives for 24 hours. After incubation, the total RNA for each NHEK was extracted using Qiagen Mini RNeasy kit (Qiagen, Cat. 74106) according to manufacturer's protocol.
The extracted RNA was quantified using Nanodrop 2000 spectrometer (Thermo Fisher Scientific, Waltham, MA, US) and reverse transcribed to generate the template cDNA using the ABScript III RT Mast Mix (Cat. BK20428, ABclonal) according to manufacturer's protocol. Amplification of the gene encoding the TXNRD1 (Thioredoxin reductase 1) gene was performed with RT-PCR reagent (Universal SYBR Green Fast qPCR Mix kit, Cat.: RK21203, ABclonal) on the ABI Vii 7 Real-Time PCR Systems (Applied Biosystems, Thermo fisher scientific, Carlsbad, CA, USA). The Tyrosine 3-Monooxygenase/Tryptophan 5-Monooxygenase Activation Protein Zeta gene (YWHAZ) was selected as the housekeeping gene and all data on relative expression of the target genes was normalized to YWHAZ.

For the compound `CCCCCCc1ccc(O)cc1O` [HR, 4-hexyl resorcinol], under “Homo sapiens, 5 μM of HR in medium, read-out: Fold change for gene expression TXNRD1”, the fold induction at 5 µM was found to be 1.
Regarding Lysine carboxymethyl cysteinate [LCC], the “Fold change for gene expression TXNRD1” value (0.05 wt % of LCC in medium) amounted to 1.2.
